From patent publication EP0443560A2, “HIV protease inhibitors” (priority 1990, dated 1991)
Read-outs that look alike come from different tables or passages of the source.

Biological target: T1, HIV protease (Human immunodeficiency virus type 1 group M subtype B, UniProt P04585)
T1 construct: HIV protease was expressed in E. coli [construct pBRT1 prt⁺; made in house; host or cells: E. coli
Assay: Recombinant HIV Protease HPLC Assay
Type: biochemical
Text: The procedure is based on the capacity of the test compound to inhibit enzymatic cleavage by HIV protease of a decapeptide (the substrate) having an amino acid sequence which includes a known HIV protease cleavage site of a HIV polyprotein; see H.G. Krausslich et al., Proc. Natl. Acad. Sci. USA, 86, 807 (1989). Details of this assay together with the results obtained for exemplified compounds of formula 1 are described in the examples hereinafter.
Recombinant HIV Protease HPLC Assay:
HIV protease was expressed in E. coli [construct pBRT1 prt⁺, see W.G. Farmerie et al., Science, 236, 305 (1987)], according to the following protocol: Unless stated otherwise, all solutions are aqueous solutions.
E. coli cells containing the pBRT1 prt⁺ plasmid were used to inoculate a seed culture media composed of Luria-Bertani Broth containing 100µg/mL of ampicillin. Flasks were incubated at 37° under agitation for 17 h. Production flasks containing sterile M9 broth, supplemented with 100µg/ml of ampicillin, were inoculated at a level of 1% (v/v) using the seed culture described above. Total volume in each production flask was 500 mL in a 2 L Erlenmeyer flask. Flasks were incubated at 37° under agitation until a cell concentration corresponding to an optical density (λ = […]) of 0.6 was reached (no dilution). This time span was routinely 3-4 h. Flasks were then supplemented with 5mM isopropylthiogalactoside (IPTG, Research Organics, Cleveland, Ohio, USA) and incubation was continued until the cell concentration reached an optical density of 0.2 at 16-fold dilution. Flasks were then supplemented with 1mM phenylmethylsulfonyl fluoride (PMSF) and rapidly chilled to 4°. The bacterial cells were recovered by centrifugation at 4°. The wet pellet was stored at -70°.
All steps below were performed at 4° unless otherwise indicated. Thawed cells were mixed with buffer A [50 mM tris(hydroxymethyl)[…] HCl(Tris-HCl, pH 7.4); 0.6 mM ethylenediaminetetraacetic acid (EDTA); 0.375 M NaCl, 0.2% Nonidet P-40 ® (BDH Chemicals Ltd., Poole, UK); 1mM PMSF], at a ratio of one part cells to nine parts buffer A. Diatomaceous earth (Celite 545 ® , John Manville, Lompoc, CA, USA) was added at a ratio of two parts to one part of wet cell weight. The resulting slurry was homogenized at high speed (ca. 20,000 rpm) on a Waring ® industrial blender for 8 x 15 sec. pulses. Cell debris/Celite ® was collected by centrifugation and the resulting pellet was extracted with 4.5 parts of buffer A to one part wet solids using the homogenization procedure described above. Supernatants from both homogenization steps were combined and soluble protein was precipitated by the addition of solid (NH₄)₂SO₄ to yield a final concentration of 75% saturation. This mixture was agitated for 60 min and the precipitate was recovered by centrifugation. The resulting pellet was suspended in buffer B [50mM Tris-HCl, pH 8; 30 mM NaCl; 1 mM DL-dithiothreitol(DTT); 1 mM EDTA; 1 mM PMSF; 10% glycerol], and dialyzed for 18h against the same buffer.
An aliquot of the dialyzed extract containing 150 mg of the protein was loaded onto a Sephadex A25 ® anion exchange column. (Pharmacia, Uppsala, Sweden) with bed dimensions of 70 cm length and 2.5 cm diameter. The sample was eluted isocratically with buffer B at a linear flow rate of 10 cm/h. Fractions containing HIV protease activity (see below for assay description) were combined, and soluble protein was precipitated by the addition of saturated aqueous (NH₄)₂SO₄ to yield a total (NH₄)₂SO₄ concentration of 85% saturation. Precipitated protein was removed by centrifugation and the resulting pellet was dissolved in buffer C [50 mM 2-(4-morpholino)ethanesulfonic acid (MES), pH 5.5; 150 mM NaCl; 1 mM DTT; 1 mM EDTA; 10% glycerol). This preparation was dialyzed for 18h against buffer C, and then frozen at -70°. All crude extracts were purified by chromatography in aliquots containing 150 mg of protein in the same manner as described above. […]

[1] = recombinant HIV protease HPLC assay, values in parenthesis in text, read-out: IC₅₀
[2] = read-out: IC₅₀, recombinant HIV protease HPLC assay, values in parenthesis in text

| Molecule | IC50 [1] | also measured |
| --- | --- | --- |
| COC(=O)CCC(NC(=O)CC(O)C(CC1CCCCC1)NC(=O)OC(C)(C)C)C(=O)NCCc1ccc(SC)cc1 (stereo not drawn) [Boc-ACHPA-Glu(OMe)-NHCH₂CH₂-(4MeS-Ph)] | 0.091 µM | – |
| COC(=O)CC[C@H](NC(=O)C[C@H](O)[C@H](CC1CCCCC1)NC(=O)OC(C)(C)C)C(=O)NCCCc1ccc(F)cc1 [Boc-ACHPA-Glu(OMe)-NHCH₂CH₂CH₂-(4F-Ph)] | – | IC50 [2]: 0.083 µM |
| COC(=O)CC[C@H](NC(=O)C[C@H](O)[C@H](CC1CCCCC1)NC(=O)OC(C)(C)C)C(=O)NCCOc1ccccc1Cl [Boc-ACHPA-Glu(OMe)-NHCH₂CH₂O-(2Cl-Ph)] | – | IC50 [2]: 0.14 µM |
| COC(=O)CC[C@H](NC(=O)C[C@H](O)[C@H](CC1CCCCC1)NC(=O)OC(C)(C)C)C(=O)NCCOCc1ccccc1 [Boc-ACHPA-Glu(OMe)-NHCH₂CH₂OBzl] | 0.26 µM | – |
| CC(C)(C)OC(=O)N[C@@H](CC1CCCCC1)[C@@H](O)CC(=O)N[C@@H](CCC(=O)O)C(=O)NCCc1ccc(Cl)cc1 [Boc-ACHPA-Glu-NHCH₂CH₂-(4-Cl-Ph)] | – | IC50 [2]: 0.012 µM |
| COc1ccc(CCNC(=O)[C@H](CCC(=O)O)NC(=O)C[C@H](O)[C@H](CC2CCCCC2)NC(=O)OC(C)(C)C)cc1 [Boc-ACHPA-Glu-NHCH₂CH₂-(4-MeO-Ph)] | 0.033 µM | – |
| CC(C)(C)OC(=O)N[C@@H](CC1CCCCC1)[C@@H](O)CC(=O)N[C@@H](CCC(=O)O)C(=O)NCCCc1ccco1 [Boc-ACHPA-Glu-NHCH₂CH₂CH₂-(2-furyl)] | 0.025 µM | – |
| CC(C)(C)OC(=O)N[C@@H](CC1CCCCC1)[C@@H](O)CC(=O)N[C@@H](CCC(=O)O)C(=O)NCCCc1cccs1 [Boc-ACHPA-Glu-NHCH₂CH₂CH₂-(2-thienyl)] | 0.033 µM | – |
| CC(C)(C)OC(=O)N[C@@H](CC1CCCCC1)[C@@H](O)CC(=O)N[C@@H](CCC(=O)O)C(=O)NCCCc1ccc(F)cc1 [Boc-ACHPA-Glu-NHCH₂CH₂CH₂-(4F-Ph)] | – | IC50 [2]: 0.0056 µM |
| CC(C)(C)OC(=O)N[C@@H](CC1CCCCC1)[C@@H](O)CC(=O)N[C@@H](CCC(=O)O)C(=O)NCCOc1ccccc1Cl [Boc-ACHPA-Glu-NHCH₂CH₂O-(2Cl-Ph)] | – | IC50 [2]: 0.0066 µM |
| CC(C)(C)OC(=O)NC(CC1CCCCC1)C(O)CC(=O)NC(CCC(=O)O)C(=O)NCCOCc1ccccc1 (stereo not drawn) [Boc-ACHPA-Glu-NHCH₂CH₂OBzl] | 0.0071 µM | – |
| CC(C)(C)OC(=O)N[C@@H](CC1CCCCC1)[C@@H](O)CC(=O)N[C@@H](CCC(=O)O)C(=O)NCCOc1ccccc1 [Boc-ACHPA-Glu-NHCH₂CH₂OPh] | 0.0086 µM | – |
| CC(C[C@H](NC(=O)C[C@H](O)[C@H](CC1CCCCC1)NC(=O)OC(C)(C)C)C(=O)NCCCc1ccccc1)C(=O)O (stereo partly drawn) [Boc-ACHPA-{(S)-NHCH[CH₂CH(CH₃)COOH]}C(O)-NHCH₂CH₂CH₂Ph] | 0.018 µM | – |
| COC(=O)CC[C@H](NC(=O)CC[C@H](O)[C@H](CC1CCCCC1)NC(=O)OC(C)(C)C)C(=O)NCCCc1ccccc1 [Boc-ChaΨ[CH(OH)CH₂]Gly-Glu(OMe)-NHCH₂CH₂CH₂Ph] | 0.6 µM | – |
| CC(C)(C)OC(=O)N[C@@H](CC1CCCCC1)[C@@H](O)CCC(=O)N[C@@H](CCC(=O)O)C(=O)NCCCc1ccccc1 [Boc-ChaΨ[CH(OH)CH₂]Gly-Glu-NHCH₂CH₂CH₂Ph] | 0.014 µM | – |
| COC(=O)CC[C@H](NC(=O)C[C@H](O)[C@@H](NC(=O)OC(C)(C)C)[C@@H](O)C1CCCCC1)C(=O)NCCCc1ccccc1 [Boc-HACHPA-Glu(OMe)-NHCH₂CH₂CH₂Ph] | 0.12 µM | – |
| CC(C)(C)OC(=O)N[C@H](CN[C@@H](CC1CC1)C(=O)N[C@@H](CCC(=O)O)C(=O)NCCc1ccccc1)Cc1ccccc1 [Boc-PheΨ[CH₂NH]Cpa-Glu-NHCH₂CH₂Ph] | 0.016 µM | – |
| CCCC[C@H](NC[C@H](Cc1ccccc1)NC(=O)OC(C)(C)C)C(=O)N[C@@H](CCC(=O)O)C(=O)NCCCc1ccccc1 [Boc-PheΨ[CH₂NH]Nle-Glu-NHCH₂CH₂CH₂Ph] | 0.012 µM | – |
| CC(C)[C@H](NC[C@H](Cc1ccccc1)NC(=O)OC(C)(C)C)C(=O)N[C@@H](CCC(=O)O)C(=O)NCCCc1ccccc1 [Boc-PheΨ[CH₂NH]Val-Glu-NHCH₂CH₂₂CH₂Ph] | 0.03 µM | – |
| CC(=O)N[C@@H](CC1CCCCC1)[C@@H](O)CC(=O)N[C@@H](CCC(=O)O)C(=O)NCCCc1ccccc1 [CH₃C(O)-ACHPA-Glu-NHCH₂CH₂CH₂Ph] | 0.16 µM | – |

| Molecule | IC50 [1] | also measured |
| --- | --- | --- |
| CC(C)C[C@H](NC[C@H](Cc1ccccc1)NC(=O)OC(C)(C)C)C(=O)N[C@@H](CCC(=O)O)C(=O)NCCCc1ccccc1 [Example 1, Boc-PheΨ[CH₂NH]Leu-Glu-NHCH₂CH₂CH₂Ph] | – | IC50: 0.036 µM |
| COC(=O)CCC(NC(=O)CC(O)C(CC1CCCCC1)NC(=O)OC(C)(C)C)C(=O)NCCCc1ccccc1 (stereo not drawn) [Example 5, Boc-ACHPA-Glu(OMe)-NHCH₂CH₂CH₂Ph] | – | IC50: 0.11 µM |
| CCC(CC)C(=O)NC(CC1CCCCC1)C(O)CC(=O)NC(CCC(=O)O)C(=O)NCCc1ccccc1 (stereo not drawn) [Example 6, (C₂H₅)₂CHC(O)-ACHPA-Glu-NHCH₂CH₂Ph] | – | IC50: 0.093 µM |
| O=C(O)CCC(NC(=O)CC(O)C(CC1CCCCC1)NC(=O)C1CCCCC1)C(=O)NCCc1ccccc1 (stereo not drawn) [Example 12, (Cyclohexylcarbonyl)-ACHPA-Glu-NHCH₂CH₂Ph] | – | IC50: 0.13 µM |
| CCCCCCCCNC(=O)C(CCC(=O)O)NC(=O)CC(O)C(CC1CCCCC1)NC(=O)OC(C)(C)C (stereo not drawn) [Example 13, Boc-ACHPA-Glu-NH(CH₂)₇CH₃] | – | IC50: 0.04 µM |
| CC(C)(C)OC(=O)NC(CC1CC1)C(O)CC(=O)NC(CCC(=O)O)C(=O)NCCCc1ccccc1 (stereo not drawn) [Example 18, Boc-ACPPA-Glu-NHCH₂CH₂CH₂Ph] | – | IC50: 0.18 µM |
| CSc1ccc(CCNC(=O)C(CCC(=O)O)NC(=O)CC(O)C(CC2CCCCC2)NC(=O)OC(C)(C)C)cc1 (stereo not drawn) [Example 22, Boc-ACHPA-Glu-NHCH₂CH₂-(4MeS-Ph)] | – | IC50: 0.018 µM |
| CC(C)(C)OC(=O)NC(CC1CCCCC1)C(O)CC(=O)NC(CCC(=O)O)C(=O)OCCCc1ccccc1 (stereo not drawn) [Example 25, Boc-ACHPA-Glu-OCH₂CH₂CH₂Ph] | – | IC50: 0.085 µM |
| CC(C)(C)NC(=O)NC(CC1CCCCC1)C(O)CC(=O)NC(CCC(=O)O)C(=O)NCCCc1ccccc1 (stereo not drawn) [Example 26, (CH₃)₃CNHCO-ACHPA-Glu-NHCH₂CH₂CH₂Ph] | – | IC50: 0.12 µM |
| CC(C)(C)OC(=O)NC(CC1CCCCC1)C(O)CC(=O)NC(CCC(=O)O)C(=S)NCCCc1ccccc1 (stereo not drawn) [Example 31, Boc-ACHPA-GluΨ[CSNH]-NHCH₂CH₂CH₂Ph] | – | IC50: 0.38 µM |
| CC(C)(C)OC(=O)NC(C(O)CC(=O)NC(CCC(=O)O)C(=O)NCCCc1ccccc1)C(O)C1CCCCC1 (stereo not drawn) [Example 33, Boc-HACHPA-Glu-NHCH₂CH₂CH₂Ph] | – | IC50: 0.0077 µM |
| COC(=O)CC[C@H](NC(=O)C[C@H](O)[C@H](CC1CCCCC1)NC(=O)OC(C)C)C(=O)NCCOCc1ccccc1 [Ipoc-ACHPA-Glu(OMe)-NHCH₂CH₂OBzl] | 0.15 µM | – |
| CC(C)OC(=O)N[C@@H](CC1CCCCC1)[C@@H](O)CC(=O)N[C@@H](CCC(=O)O)C(=O)NCCCc1ccccc1 [Ipoc-ACHPA-Glu-NH-CH₂CH₂CH₂Ph] | 0.0063 µM | – |
| COC(=O)N[C@@H](CC1CCCCC1)[C@@H](O)CC(=O)N[C@@H](CCC(=O)O)C(=O)NCCCc1ccccc1 [Moc-ACHPA-Glu-NHCH₂CH₂CH₂Ph] | 0.015 µM | – |
| Boc(4F-Phe)Ψ[CH₂NH]Cpa-Glu-NHCH₂CH₂-(4F-Ph) | 0.015 µM | – |
| Boc-AHDHA-Glu-NHCH₂CH₂CH₂Ph | 0.032 µM | – |
| Boc-PheΨ[CH₂NH]Cpa-Glu-NHCH₂CH₂-(4F-Ph) | 0.0084 µM | – |
| Boc-PheΨ[CH₂NH]Cpa-Glu-NHCH₂CH₂CH₂-(4F-Ph) | 0.008 µM | – |
| Boc-homoACHPA-Glu-NHCH₂CH₂CH₂Ph | 0.068 µM | – |
